# Assay results from ChEMBL document CHEMBL6121038, “Design and Synthesis of Hederagenin Derivatives for the Treatment of Sepsis by Targeting TAK1 and Regulating the TAK1-NF-κB/MAPK Signaling” (J Med Chem, 2025).
# Assays:
# [1] = AUC (0 to t) in BALB/c mouse at 10 mg/kg, po measured upto 24 hrs by LC/MS-MS analysis; type: ADME, organism-based; details: in vivo
# [2] = Cmax in BALB/c mouse at 10 mg/kg, po measured upto 24 hrs by LC/MS-MS analysis; type: ADME, organism-based; details: in vivo
# [3] = Tmax in BALB/c mouse at 10 mg/kg, po measured upto 24 hrs by LC/MS-MS analysis; type: ADME, organism-based; details: in vivo
# [4] = Half life in BALB/c mouse at 10 mg/kg, po measured upto 24 hrs by LC/MS-MS analysis; type: ADME, organism-based; details: in vivo
# [5] = AUC (0 to infinity) in BALB/c mouse at 10 mg/kg, po measured upto 24 hrs by LC/MS-MS analysis; type: ADME, organism-based; details: in vivo
# RAW264.7 [6] = assay: Antiinflammatory activity in LPS-induced mouse RAW264.7 cells assessed as inhibition of IL-6 level at 20 uM incubated for 24 hrs by ELISA method relative to control; type: functional
# RAW264.7 [7] = assay: Cytotoxicity against mouse RAW264.7 cells assessed as cell viability at 40 uM measured after 24 hrs by MTT assay; type: toxicity, cell-based; details: raw264.7, 24 h
# RAW264.7 [8] = assay: Antiinflammatory activity in LPS-induced mouse RAW264.7 cells assessed as inhibition of TNF-alpha level at 20 uM incubated for 24 hrs by ELISA method relative to control; type: functional
# [9] = Toxicity in BALB/c mouse assessed as histopathological lesions in lung at 10 mg/kg, po by H and E staining based analysis; type: organism-based; details: in vivo
SMILES,inhibition at 20 µM (RAW264.7 [6]) [%],Activity (RAW264.7 [7]),inhibition at 20 µM (RAW264.7 [8]) [%],other results
CC1(C)CC[C@]2(C(=O)OCc3ccccc3)CC[C@]3(C)C(=CC[C@@H]4[C@@]5(C)Cc6c(C(=O)O)noc6[C@@](C)(COC(=O)CCC(=O)N6CCOCC6)[C@@H]5CC[C@]43C)[C@@H]2C1,–,–,–,AUC(0-t) at 24 h [1]: 1290 ng·h/mL; Cmax [2]: 209 ng/mL; Tmax [3]: 1.5 h; half-life [4]: 4.49 h; AUC(0-inf) [5]: 2020 ng·h/mL
CCOC(=O)c1noc2c1C[C@@]1(C)[C@@H](CC[C@]3(C)[C@@H]1CC=C1[C@@H]4CC(C)(C)CC[C@]4(C(=O)OCc4ccccc4)CC[C@]13C)[C@]2(C)COC(=O)[C@H](Cc1ccccc1)NC(=O)OC(C)(C)C,44.9,Non-toxic,59.3,–
CCOC(=O)c1noc2c1C[C@@]1(C)[C@@H](CC[C@]3(C)[C@@H]1CC=C1[C@@H]4CC(C)(C)CC[C@]4(C(=O)OCc4ccccc4)CC[C@]13C)[C@]2(C)COC(=O)CCSSCCC(=O)N1CCCCC1,24.5,Non-toxic,14.2,–
CCOC(=O)c1noc2c1C[C@@]1(C)[C@@H](CC[C@]3(C)[C@@H]1CC=C1[C@@H]4CC(C)(C)CC[C@]4(C(=O)OCc4ccccc4)CC[C@]13C)[C@]2(C)COC(=O)CCC(=O)N1CCCCC1,50.6,Non-toxic,61,–
CCOC(=O)c1noc2c1C[C@@]1(C)[C@@H](CC[C@]3(C)[C@@H]1CC=C1[C@@H]4CC(C)(C)CC[C@]4(C(=O)OCc4ccccc4)CC[C@]13C)[C@]2(C)COC(=O)CCn1cccc1,46.2,Non-toxic,52.5,–
CCOC(=O)c1noc2c1C[C@@]1(C)[C@@H](CC[C@]3(C)[C@@H]1CC=C1[C@@H]4CC(C)(C)CC[C@]4(C(=O)OCc4ccccc4)CC[C@]13C)[C@]2(C)COC(=O)CCC(=O)N[C@H](CCSC)C(=O)OC,44.6,Non-toxic,52.2,–
CCOC(=O)c1noc2c1C[C@@]1(C)[C@@H](CC[C@]3(C)[C@@H]1CC=C1[C@@H]4CC(C)(C)CC[C@]4(C(=O)OCc4ccccc4)CC[C@]13C)[C@]2(C)COC(=O)CCC(=O)N1CCN(CC)CC1,66.3,Non-toxic,75.4,–
CCOC(=O)c1noc2c1C[C@@]1(C)[C@@H](CC[C@]3(C)[C@@H]1CC=C1[C@@H]4CC(C)(C)CC[C@]4(C(=O)OCc4ccccc4)CC[C@]13C)[C@]2(C)COC(=O)[C@H](CCSC)NC(=O)OC(C)(C)C,11.7,Non-toxic,15.3,–
CCOC(=O)c1noc2c1C[C@@]1(C)[C@@H](CC[C@]3(C)[C@@H]1CC=C1[C@@H]4CC(C)(C)CC[C@]4(C(=O)OCc4ccccc4)CC[C@]13C)[C@]2(C)COC(=O)c1ccccc1C(=O)N[C@@H](CCC(=O)OC)C(=O)OC,8.65,Non-toxic,14.8,–
CCOC(=O)c1noc2c1C[C@@]1(C)[C@@H](CC[C@]3(C)[C@@H]1CC=C1[C@@H]4CC(C)(C)CC[C@]4(C(=O)OCc4ccccc4)CC[C@]13C)[C@]2(C)COC(=O)CCC(=O)N[C@@H](CC(=O)OC)C(=O)OC,37.6,Non-toxic,54.3,–
CCOC(=O)c1noc2c1C[C@@]1(C)[C@@H](CC[C@]3(C)[C@@H]1CC=C1[C@@H]4CC(C)(C)CC[C@]4(C(=O)OCc4ccccc4)CC[C@]13C)[C@]2(C)COC(=O)CCC(=O)N1CCN(C(C)C)CC1,68.6,Non-toxic,78.1,–
CCOC(=O)c1noc2c1C[C@@]1(C)[C@@H](CC[C@]3(C)[C@@H]1CC=C1[C@@H]4CC(C)(C)CC[C@]4(C(=O)OCc4ccccc4)CC[C@]13C)[C@]2(C)COC(=O)c1cc2ccccc2[nH]1,15,Non-toxic,9.1,–
CCOC(=O)c1noc2c1C[C@@]1(C)[C@@H](CC[C@]3(C)[C@@H]1CC=C1[C@@H]4CC(C)(C)CC[C@]4(C(=O)OCc4ccccc4)CC[C@]13C)[C@]2(C)COC(=O)CCC(=O)N[C@@H](CCC(=O)OC)C(=O)OC,22,Non-toxic,33.6,–
CCOC(=O)c1noc2c1C[C@@]1(C)[C@@H](CC[C@]3(C)[C@@H]1CC=C1[C@@H]4CC(C)(C)CC[C@]4(C(=O)OCc4ccccc4)CC[C@]13C)[C@]2(C)COC(=O)[C@H](CC(C)C)NC(=O)OC(C)(C)C,4.25,Non-toxic,7.45,–
CCOC(=O)c1noc2c1C[C@@]1(C)[C@@H](CC[C@]3(C)[C@@H]1CC=C1[C@@H]4CC(C)(C)CC[C@]4(C(=O)OCc4ccccc4)CC[C@]13C)[C@]2(C)COC(=O)CCC(=O)N[C@@H](CC(C)C)C(=O)OC,25.7,Non-toxic,33.1,–
CCOC(=O)c1noc2c1C[C@@]1(C)[C@@H](CC[C@]3(C)[C@@H]1CC=C1[C@@H]4CC(C)(C)CC[C@]4(C(=O)OCc4ccccc4)CC[C@]13C)[C@]2(C)COC(=O)CCSSCCC(=O)N[C@@H](CC(=O)OC)C(=O)OC,6.08,Non-toxic,7.53,–
CCOC(=O)c1noc2c1C[C@@]1(C)[C@@H](CC[C@]3(C)[C@@H]1CC=C1[C@@H]4CC(C)(C)CC[C@]4(C(=O)OCc4ccccc4)CC[C@]13C)[C@]2(C)COC(=O)CCSSCCC(=O)N1CCN(CC)CC1,26.8,–,22.7,–
CCOC(=O)c1noc2c1C[C@@]1(C)[C@@H](CC[C@]3(C)[C@@H]1CC=C1[C@@H]4CC(C)(C)CC[C@]4(C(=O)OCc4ccccc4)CC[C@]13C)[C@]2(C)COC(=O)c1ccccc1C(=O)N1CCN(C(C)C)CC1,11.4,Non-toxic,22.9,–
CC1(C)CC[C@]2(C(=O)OCc3ccccc3)CC[C@]3(C)C(=CC[C@@H]4[C@@]5(C)Cc6c(C(=O)O)noc6[C@@](C)(CO)[C@@H]5CC[C@]43C)[C@@H]2C1,–,–,–,AUC(0-t) at 24 h [1]: 2580 ng·h/mL; Cmax [2]: 285 ng/mL; Tmax [3]: 3 h; half-life [4]: 5.54 h; AUC(0-inf) [5]: 2720 ng·h/mL
CCOC(=O)c1noc2c1C[C@@]1(C)[C@@H](CC[C@]3(C)[C@@H]1CC=C1[C@@H]4CC(C)(C)CC[C@]4(C(=O)OCc4ccccc4)CC[C@]13C)[C@]2(C)COC(=O)[C@H](CCC(=O)OC)NC(=O)OC(C)(C)C,55.4,Non-toxic,60,–
CCOC(=O)c1noc2c1C[C@@]1(C)[C@@H](CC[C@]3(C)[C@@H]1CC=C1[C@@H]4CC(C)(C)CC[C@]4(C(=O)OCc4ccccc4)CC[C@]13C)[C@]2(C)COC(=O)CCC(=O)N[C@@H](Cc1ccccc1)C(=O)OC,25,Non-toxic,31.7,–
CCOC(=O)c1noc2c1C[C@@]1(C)[C@@H](CC[C@]3(C)[C@@H]1CC=C1[C@@H]4CC(C)(C)CC[C@]4(C(=O)OCc4ccccc4)CC[C@]13C)[C@]2(C)COC(=O)CCc1c[nH]c2ccccc12,18.9,Non-toxic,15.8,–
C[C@@H]1C[C@H]2[C@@H]3CCC4=CC(=O)C=C[C@]4(C)[C@@]3(F)[C@@H](O)C[C@]2(C)[C@@]1(O)C(=O)CO [DEXAMETHASONE],73.5,–,80.7,Activity [9]: Non-toxic
CCOC(=O)c1noc2c1C[C@@]1(C)[C@@H](CC[C@]3(C)[C@@H]1CC=C1[C@@H]4CC(C)(C)CC[C@]4(C(=O)OCc4ccccc4)CC[C@]13C)[C@]2(C)COC(=O)c1cnccn1,5.92,Non-toxic,8.27,–
